Assay results published in BindingDB's records for doi:10.1016/j.bmcl.2009.04.039 (Johnson & Johnson Pharmaceutical Research & Development, 2009).
pIC50: −log10 of the molar value.

Biological target: T1, Signal transducer and activator of transcription 5A (Homo sapiens, UniProt P42229)
T1 sequence (P42229 whole entry): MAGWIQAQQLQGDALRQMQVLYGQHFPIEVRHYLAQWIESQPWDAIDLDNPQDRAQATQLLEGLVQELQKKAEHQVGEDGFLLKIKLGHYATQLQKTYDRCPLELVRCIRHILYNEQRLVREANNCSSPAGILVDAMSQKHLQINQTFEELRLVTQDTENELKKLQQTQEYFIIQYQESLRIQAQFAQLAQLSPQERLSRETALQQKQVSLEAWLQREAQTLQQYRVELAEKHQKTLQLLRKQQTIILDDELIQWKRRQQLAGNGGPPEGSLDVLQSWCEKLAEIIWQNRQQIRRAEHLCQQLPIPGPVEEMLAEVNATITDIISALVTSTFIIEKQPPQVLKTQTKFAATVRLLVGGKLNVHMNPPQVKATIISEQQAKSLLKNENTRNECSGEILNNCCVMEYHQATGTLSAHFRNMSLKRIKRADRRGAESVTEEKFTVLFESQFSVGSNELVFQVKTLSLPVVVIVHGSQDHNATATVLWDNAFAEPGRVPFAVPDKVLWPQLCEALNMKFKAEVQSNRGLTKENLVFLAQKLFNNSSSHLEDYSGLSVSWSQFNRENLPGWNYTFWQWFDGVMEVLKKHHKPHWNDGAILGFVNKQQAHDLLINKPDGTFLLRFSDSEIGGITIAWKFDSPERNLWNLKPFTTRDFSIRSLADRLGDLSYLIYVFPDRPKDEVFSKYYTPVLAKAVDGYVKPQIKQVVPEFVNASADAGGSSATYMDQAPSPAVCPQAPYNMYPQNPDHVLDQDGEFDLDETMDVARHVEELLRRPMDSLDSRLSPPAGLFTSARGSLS
Test: Inhibition of STAT5 phosphorylation in IL2-stimulated healthy human T cells by Western blotting

pIC50: 6.16
Compound: O=C1NCc2c1c1c3ccccc3n3c1c1c2c2ccccc2n1C[C@@H](O)[C@@H](O)C3 [12,13-(2,3-Cis-dihyroxy-1,4-butyl)-6,7,12,13-tetrahydro-5-oxo-5H-indolo[2,3-a]pyrrolo[3,4-c]carbazole]
